One data set addresses T1, Bovine LOX (Bos taurus, UniProt P33072).
T1 sequence (P33072 170-418): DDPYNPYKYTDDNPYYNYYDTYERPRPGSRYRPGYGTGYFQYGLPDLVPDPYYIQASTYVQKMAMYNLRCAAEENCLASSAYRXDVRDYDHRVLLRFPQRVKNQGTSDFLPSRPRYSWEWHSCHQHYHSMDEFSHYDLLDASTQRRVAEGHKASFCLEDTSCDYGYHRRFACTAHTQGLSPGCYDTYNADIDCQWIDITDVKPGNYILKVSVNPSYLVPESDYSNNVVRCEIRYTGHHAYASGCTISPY
Briefly: LOX amine oxidase inhibition, peroxidase-coupled Amplex Red assay. Format: biochemical. Particulars: 30 min preincubation at 37° C., putrescine substrate. From the text:
(§1) Method to Determine the Ability of Compounds of the Invention to Inhibit LOX and LOXL1-4 from Different Sources
Lysyl oxidase (LOX) is an extracellular copper dependent enzyme which oxidizes peptidyl lysine and hydroxylysine residues in collagen and lysine residues in elastin to produce peptidyl alpha-aminoadipic-delta-semialdehydes. […] There are five LOX family members; these are LOX, LOXL1, LOXL2, LOXL3 and LOXL4. LOX and LOXL family members can be acquired as recombinant active proteins from commercial sources, or extracted from animal tissues like bovine aorta, tendons, pig skin; or prepared from cell cultures. The inhibitory effects of the compounds of the present invention were tested against the given LOX-LOXL preparation using a high-throughput coupled colorimetric method (Holt A. and Palcic M., A peroxidase-coupled continuous absorbance plate-reader assay for flavin monoamine oxidases, copper-containing amine oxidases and related enzymes. Nat. Protoc. 2006; 1: 2498-2505). The assay was developed using either 384 or 96 well format. Briefly, in a standard 384 well plate assay 25 μL of a dilution of any of the isoenzymes and orthologues in 1.2 M urea, 50 mM sodium borate buffer (pH 8.2) were added into each well in the presence of 1 μM mofegiline and 0.5 mM pargyline (to inhibit SSAO and MAO-B and MAO-A, respectively). […] Twenty five μL of a reaction mixture containing twice the KM concentration of putrescine (Sigma Aldrich, e.g. 20 mM for LOX, or 10 mM for LOXL2 and LOXL3), 120 μM Amplex Red (Sigma Aldrich) and 1.5 U/mL horseradish peroxidase (Sigma Aldrich) prepared in 1.2 M urea, 50 mM sodium borate buffer (pH 8.2) were then added to the corresponding wells. The above volumes were doubled in the case of 96 wells plate. The fluorescence (RFU) was read every 2.5 min for 30 min at a range of temperatures from 37° to 45° C., excitation 565 nm and emission 590 (Optima; BMG labtech). The slope of the kinetics for each well was calculated using MARS data analysis software (BMG labtech) and this value was used to deduce the IC50 value (Dotmatics).

Another data set concerns the target T2, Human LOXL2 (Homo sapiens, UniProt Q9Y4K0).
T2 sequence (Q9Y4K0 26-774): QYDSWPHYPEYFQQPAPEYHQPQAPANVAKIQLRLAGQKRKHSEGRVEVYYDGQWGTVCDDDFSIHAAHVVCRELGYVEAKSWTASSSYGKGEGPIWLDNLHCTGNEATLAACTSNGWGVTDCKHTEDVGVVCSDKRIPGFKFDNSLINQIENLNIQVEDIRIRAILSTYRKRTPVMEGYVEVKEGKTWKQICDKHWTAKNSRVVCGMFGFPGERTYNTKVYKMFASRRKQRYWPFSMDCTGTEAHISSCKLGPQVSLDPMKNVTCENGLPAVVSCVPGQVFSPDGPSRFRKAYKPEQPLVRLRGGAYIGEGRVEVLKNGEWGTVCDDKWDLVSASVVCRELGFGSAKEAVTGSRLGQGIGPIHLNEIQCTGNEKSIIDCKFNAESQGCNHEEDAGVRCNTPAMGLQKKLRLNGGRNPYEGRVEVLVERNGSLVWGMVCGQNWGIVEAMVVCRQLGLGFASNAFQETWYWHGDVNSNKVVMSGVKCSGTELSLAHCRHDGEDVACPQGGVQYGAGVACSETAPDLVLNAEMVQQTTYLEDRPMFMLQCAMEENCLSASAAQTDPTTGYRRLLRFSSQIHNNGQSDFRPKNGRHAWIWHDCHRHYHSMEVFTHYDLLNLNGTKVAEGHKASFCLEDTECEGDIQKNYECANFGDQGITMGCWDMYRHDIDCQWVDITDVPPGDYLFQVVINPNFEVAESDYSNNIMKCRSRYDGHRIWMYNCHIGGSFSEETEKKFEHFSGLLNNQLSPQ
Briefly: LOXL2 amine oxidase inhibition, peroxidase-coupled Amplex Red assay. Format: biochemical. As to conditions: 30 min preincubation at 37° C., putrescine substrate.
Excerpt: as §1
Lysyl oxidase (LOX) is an extracellular copper dependent enzyme which oxidizes peptidyl lysine and hydroxylysine residues in collagen and lysine residues in elastin to produce peptidyl alpha-aminoadipic-delta-semialdehydes. […] There are five LOX family members; these are LOX, LOXL1, LOXL2, LOXL3 and LOXL4. LOX and LOXL family members can be acquired as recombinant active proteins from commercial sources, or extracted from animal tissues like bovine aorta, tendons, pig skin; or prepared from cell cultures. The inhibitory effects of the compounds of the present invention were tested against the given LOX-LOXL preparation using a high-throughput coupled colorimetric method (Holt A. and Palcic M., A peroxidase-coupled continuous absorbance plate-reader assay for flavin monoamine oxidases, copper-containing amine oxidases and related enzymes. Nat. Protoc. 2006; 1: 2498-2505). The assay was developed using either 384 or 96 well format. Briefly, in a standard 384 well plate assay 25 μL of a dilution of any of the isoenzymes and orthologues in 1.2 M urea, 50 mM sodium borate buffer (pH 8.2) were added into each well in the presence of 1 μM mofegiline and 0.5 mM pargyline (to inhibit SSAO and MAO-B and MAO-A, respectively). Test compounds were dissolved in DMSO and tested in a Concentration Response Curve (CRC) with 11 data points, typically in the micromolar or nanomolar range after incubation with the enzyme for 30 min at 37° C. Twenty five μL of a reaction mixture containing twice the KM concentration of putrescine (Sigma Aldrich, e.g. 20 mM for LOX, or 10 mM for LOXL2 and LOXL3), 120 μM Amplex Red (Sigma Aldrich) and 1.5 U/mL horseradish peroxidase (Sigma Aldrich) prepared in 1.2 M urea, 50 mM sodium borate buffer (pH 8.2) were then added to the corresponding wells. The above volumes were doubled in the case of 96 wells plate. The fluorescence (RFU) was read every 2.5 min for 30 min at a range of temperatures from 37° to 45° C., excitation 565 nm and emission 590 (Optima; BMG labtech). The slope of the kinetics for each well was calculated using MARS data analysis software (BMG labtech) and this value was used to deduce the IC50 value (Dotmatics).

Another data set concerns the target T3, Recombinant human MAO-B (Homo sapiens, UniProt P27338).
T3 construct: purchased Sigma Aldrich
T3 sequence (P27338 1-520): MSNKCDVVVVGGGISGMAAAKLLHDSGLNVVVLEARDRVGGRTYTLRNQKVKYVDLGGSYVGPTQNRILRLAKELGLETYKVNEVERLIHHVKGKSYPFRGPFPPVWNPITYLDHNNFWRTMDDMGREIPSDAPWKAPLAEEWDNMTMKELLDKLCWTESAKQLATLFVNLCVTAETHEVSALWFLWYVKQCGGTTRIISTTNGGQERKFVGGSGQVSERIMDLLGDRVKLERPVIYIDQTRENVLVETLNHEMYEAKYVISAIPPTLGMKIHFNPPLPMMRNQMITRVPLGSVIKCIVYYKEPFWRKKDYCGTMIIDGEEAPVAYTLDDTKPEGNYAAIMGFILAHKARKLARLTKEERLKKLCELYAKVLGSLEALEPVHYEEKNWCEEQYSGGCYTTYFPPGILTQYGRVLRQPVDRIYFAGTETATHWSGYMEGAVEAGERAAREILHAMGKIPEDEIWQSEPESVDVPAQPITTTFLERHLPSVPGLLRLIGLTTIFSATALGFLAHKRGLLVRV
Briefly: Human recombinant MAO-B inhibition. Format: biochemical. Particulars: benzylamine 100 μM. How it is done: Method to Determine the Ability of Compounds of Formula I to Inhibit Human Recombinant MAO-B
The specificity of the compounds of this invention was tested by determining their ability to inhibit MAO-B activities in vitro. Recombinant human MAO-B (0.06 mg/mL; Sigma Aldrich) was used as source of MAO-B enzyme activities. The assay was performed in a similar way as for human SSAO/VAP-1 (Example 46) except, the substrate benzylamine was used at 100 μM.

Counter-ions that a name gives are not always drawn. Where only a bound is given, the exact number is not on record here.

The melting point is the temperature, or range, at which the solid turns liquid. `Cc1nn(C/C(F)=C/CN)c(C)c1Cc1ccc(S(=O)(=O)N(C)C)cc1` (as salt: hydrochloride) [Compound 2, (Z)-4-((1-(4-amino-2-fluorobut-2-en-1-yl)-3,5-dimethyl-1H-pyrazol-4-yl)methyl)-N,N-dimethylbenzenesulfonamide hydrochloride] displayed a melting point of 209 to 211 °C.

In turn, `Cc1nn(C/C(F)=C/CN)c(C)c1Cc1ccc(S(=O)(=O)N(C)C)cc1Cl` (as salt: hydrochloride) [Compound 3, (Z)-4-((1-(4-amino-2-fluorobut-2-en-1-yl)-3,5-dimethyl-1H-pyrazol-4-yl)methyl)-3-chloro-N,N-dimethylbenzenesulfonamide hydrochloride] gave a melting point of 185 to 187 °C.

As to `Cc1nn(C/C(F)=C/CN)c(C)c1Cc1ccc(S(C)(=O)=O)cc1` (as salt: hydrochloride) [Compound 4, (Z)-4-(3,5-dimethyl-4-(4-(methylsulfonyl)benzyl)-1H-pyrazol-1-yl)-3-fluorobut-2-en-1-amine hydrochloride], the melting point lay in the range of 127 to 137 °C.

As for `Cc1nn(C/C(F)=C/CN)c(C)c1Cc1ccc(S(=O)(=O)N2CCOCC2)cc1` (as salt: hydrochloride) [Compound 6, (Z)-4-(3,5-dimethyl-4-(4-(morpholinosulfonyl)benzyl)-1H-pyrazol-1-yl)-3-fluorobut-2-en-1-amine hydrochloride], the melting point was in the range of 190 to 197 °C.

`Cc1nn(C/C(F)=C/CN)c(C)c1Cc1ccc(S(=O)(=O)N2CCCC2)cc1` (as salt: hydrochloride) [Compound 7, (Z)-4-(3,5-dimethyl-4-(4-(pyrrolidin-1-ylsulfonyl)benzyl)-1H-pyrazol-1-yl)-3-fluorobut-2-en-1-amine hydrochloride] came in with a melting point of 181 to 184 °C.

In turn, `Cc1nn(C/C(F)=C/CN)c(C)c1Cc1ccc(S(=O)(=O)N(C)C)c2ccccc12` (as salt: hydrochloride) [Compound 9, (Z)-4-((1-(4-amino-2-fluorobut-2-en-1-yl)-3,5-dimethyl-1H-pyrazol-4-yl)methyl)-N,N-dimethyl naphthalene-1-sulfonamide hydrochloride] registered a melting point of 70 to 80 °C.

`Cc1nn(Cc2ccc(S(=O)(=O)N(C)C)cc2)c(C)c1C/C(F)=C/CN` (as salt: hydrochloride) [Compound 10, (Z)-4-((4-(4-amino-2-fluorobut-2-en-1-yl)-3,5-dimethyl-1H-pyrazol-1-yl)methyl)-N,N-dimethylbenzenesulfonamide hydrochloride] displayed a melting point of 180 to 185 °C.

In turn, `Cc1nn(C/C(F)=C/CN)c(C)c1Cc1ccc(C(=O)N(C)C)cc1` (as salt: hydrochloride) [Compound 14, (Z)-4-((1-(4-amino-2-fluorobut-2-en-1-yl)-3,5-dimethyl-1H-pyrazol-4-yl)methyl)-N,N-dimethylbenzamide hydrochloride] had a melting point of 75 to 82 °C.

Consider `Cc1nn(C/C(F)=C/CN)c(C)c1Cc1ccc(S(C)(=O)=O)c(Cl)c1` (as salt: hydrochloride) [Compound 16, (Z)-4-(4-(3-chloro-4-(methylsulfonyl)benzyl)-3,5-dimethyl-1H-pyrazol-1-yl)-3-fluorobut-2-en-1-amine hydrochloride], for which the melting point fell in the range of 105 to 115 °C.

On to `CNS(=O)(=O)c1ccc(Cn2nc(C)c(C/C(F)=C/CN)c2C)c(Cl)c1` (as salt: hydrochloride) [Compound 20, (Z)-4-((4-(4-amino-2-fluorobut-2-en-1-yl)-3,5-dimethyl-1H-pyrazol-1-yl)methyl)-3-chloro-N-methylbenzenesulfonamide hydrochloride], for which the melting point was in the range of 80 to 86 °C.

By IC50 is commonly meant the midpoint of a concentration-inhibition curve. Regarding `Cc1nn(C/C(F)=C/CN)c(C(C)O)c1Cc1ccc(S(=O)(=O)N(C)C)c(Cl)c1` (stereo not shown) [Compound 36, (Z)-4-((1-(4-amino-2-fluorobut-2-en-1-yl)-5-(1-hydroxyethyl)-3-methyl-1H-pyrazol-4-yl)methyl)-2-chloro-N,N-dimethylbenzenesulfonamide], the results for the IC50 against Bovine LOX, on Human LOXL2 and on Recombinant human MAO-B were greater than 10 µM, less than 1000 nM and greater than 30 µM, respectively.
